Laboratory results as given in publication PMC7414797 (Nature, 2015).
Converted amounts (≈) assume the structure as drawn. “And” between values parts separate entries of the source, which are not always exact repeats. Equal entries are not always repeated. Where two headings read alike, the source gives them in different places.

What was measured:
Staphylococcus aureus = experiment: MIC by broth microdilution; format: cell-based; conditions: for MIC90: Staphylococcus aureus
Enterococcus faecium = experiment: MIC by broth microdilution; format: cell-based; conditions: for MIC Range: E. faecium 50%VRE, 10 contemporary clinical isolates; for MIC90: Enterococcus faecium, VRE
Enterococcus faecalis = experiment: MIC by broth microdilution; format: cell-based; conditions: for MIC Range: Enterococcus faecalis 50% VRE, 10 contemporary clinical isolates; for MIC90: Enterococcus faecalis, VRE
Streptococcus pyogenes = experiment: MIC by broth microdilution; format: cell-based; conditions: for MIC90: Streptococcus pyogenes
S. epidermidis = experiment: MIC by broth microdilution; format: cell-based; conditions: for MIC90: Staphylococcus epidermidis
Streptococcus agalactiae = experiment: MIC by broth microdilution; format: cell-based; conditions: for MIC90: Streptococcus agalactiae
Streptococcus pneumoniae = experiment: MIC by broth microdilution; format: cell-based; conditions: for MIC90: Streptococcus pneumoniae, PRSP
[1] = tested on: Viridans group streptococci; experiment: MIC by broth microdilution; format: cell-based
S. aureus MRSA ATCC33591 = experiment: Mouse sepsis protection model; format: in vivo, mice; conditions: MRSA septicemia, single i.v. dose 1 h post-infection, survival at 48 h
[2] = S. aureus Daptomycin^NS, 5 contemporary clinical isolates
[3] = S. aureus MRSA, 20 contemporary clinical isolates
[4] = S. aureus VISA, 10 contemporary clinical isolates
[5] = Staphylococcus aureus MSSA, 20 contemporary clinical isolates
[6] = S. pyogenes, 10 contemporary clinical isolates
[7] = S. epidermidis, 20 contemporary clinical isolates
[8] = S. agalactiae, 10 contemporary clinical isolates
[9] = Viridans Group Streptococci, 5 isolates (S. sanguis, S. mitis, S. anginosus, S. intermedius, S. salivarius)

| Structure (SMILES) | MIC Range (Staphylococcus aureus; [2]) | MIC Range (Staphylococcus aureus; [3]) | MIC Range (Staphylococcus aureus; [4]) | MIC Range (Staphylococcus aureus; [5]) | MIC90 (Staphylococcus aureus; MRSA) | MIC90 (Staphylococcus aureus; MSSA) | MIC90 (Staphylococcus aureus; VISA) | MIC Range (Enterococcus faecium) | MIC90 (Enterococcus faecium) | MIC Range (Enterococcus faecalis) | MIC90 (Enterococcus faecalis) | MIC Range (Streptococcus pyogenes; [6]) | MIC90 (Streptococcus pyogenes) | MIC Range (S. epidermidis; [7]) | MIC90 (S. epidermidis) | MIC Range (Streptococcus agalactiae; [8]) | MIC90 (Streptococcus agalactiae) | MIC90 (Streptococcus pneumoniae) | MIC Range [1, 9] | other results |
| --- | --- | --- | --- | --- | --- | --- | --- | --- | --- | --- | --- | --- | --- | --- | --- | --- | --- | --- | --- | --- |
| CCCCCCCCCC(=O)N[C@@H](Cc1c[nH]c2ccccc12)C(=O)N[C@H](CC(N)=O)C(=O)N[C@@H](CC(=O)O)C(=O)N[C@@H]1C(=O)NCC(=O)N[C@@H](CCCN)C(=O)N[C@@H](CC(=O)O)C(=O)N[C@H](C)C(=O)N[C@@H](CC(=O)O)C(=O)NCC(=O)N[C@H](CO)C(=O)N[C@@H]([C@H](C)CC(=O)O)C(=O)N[C@@H](CC(=O)c2ccccc2N)C(=O)O[C@@H]1C [Daptomycin] | 2 to 8 µg/mL | 0.12 to 0.25 µg/mL | 0.25 to 1 µg/mL | 0.12 to 0.25 µg/mL | 0.25 µg/mL (≈ 0.154 µM) | 0.25 µg/mL (≈ 0.154 µM) | 1 µg/mL (≈ 0.617 µM) | 0.5 to 1 µg/mL | 1 µg/mL (≈ 0.617 µM) | 0.12 to 8 µg/mL | 0.5 µg/mL (≈ 0.309 µM) | ≤0.03 to 0.06 µg/mL | 0.06 µg/mL (≈ 0.037 µM) | 0.06 to 0.25 µg/mL | 0.25 µg/mL (≈ 0.154 µM) | 0.06 to 0.25 µg/mL | 0.12 µg/mL (≈ 0.074 µM) | ≤ 0.03 µg/mL | 0.06 to 0.25 µg/mL | MIC Range (Staphylococcus aureus; S. aureus Linezolid^R, 5 contemporary clinical isolates): 0.25 to 0.5 µg/mL |
| CC(=O)NC[C@H]1CN(c2ccc(N3CCOCC3)c(F)c2)C(=O)O1 [Linezolid] | 1 to 32 µg/mL | 2 to 4 µg/mL | 1 to 4 µg/mL | 2 to 4 µg/mL | 4 µg/mL (≈ 11.9 µM) | 4 µg/mL (≈ 11.9 µM) | 2 µg/mL (≈ 5.93 µM) | 1 to 2 µg/mL | 2 µg/mL (≈ 5.93 µM) | 1 to 2 µg/mL | 2 µg/mL (≈ 5.93 µM) | 0.5 to 1 µg/mL | 1 µg/mL (≈ 2.96 µM) | 1 to 8 µg/mL | 2 µg/mL (≈ 5.93 µM) | 0.5 to 2 µg/mL | 1 µg/mL (≈ 2.96 µM) | 1 µg/mL (≈ 2.96 µM) | 0.5 to 1 µg/mL | – |
| CN[C@H](CC(C)C)C(=O)N[C@H]1C(=O)N[C@@H](CC(N)=O)C(=O)N[C@H]2C(=O)N[C@H]3C(=O)N[C@H](C(=O)N[C@H](C(=O)O)c4cc(O)cc(O)c4-c4cc3ccc4O)[C@H](O)c3ccc(c(Cl)c3)Oc3cc2cc(c3O[C@@H]2O[C@H](CO)[C@@H](O)[C@H](O)[C@H]2O[C@H]2C[C@](C)(N)[C@H](O)[C@H](C)O2)Oc2ccc(cc2Cl)[C@H]1O [Vancomycin, vancomycin] | – | – | – | – | 1 µg/mL (≈ 0.69 µM) | 1 µg/mL (≈ 0.69 µM) | 8 µg/mL (≈ 5.52 µM) | – | > 32 µg/mL | – | > 32 µg/mL | – | 0.25 µg/mL (≈ 0.173 µM) | – | 2 µg/mL (≈ 1.38 µM) | – | 0.5 µg/mL (≈ 0.345 µM) | 0.25 µg/mL (≈ 0.173 µM) | – | MIC Range (Staphylococcus aureus): 0.5 to 1 µg/mL and 0.5 to 2 µg/mL and 1 to 8 µg/mL and 0.5 to 8 µg/mL and 1 µg/mL; MIC Range (Streptococcus pyogenes): 0.25 µg/mL (≈ 0.173 µM); PD50 (protective dose at which half of the animals survive) (S. aureus MRSA ATCC33591): 2.75 mg per kg; MIC Range (S. epidermidis): 1 to 2 µg/mL; MIC Range (Streptococcus agalactiae): 0.25 to 0.5 µg/mL; MIC Range (Streptococcus pneumoniae): 0.12 to 0.5 µg/mL; MIC Range [1]: 0.25 to 0.5 µg/mL |
